Reference: the kinase profiling compilation of Christmann-Franck et al. (2016)

Tests used:
Assay in all cases: KINOMEscan competition binding
Conditions in all cases: compound 10.0 µM
BMPR1A (human) = BMPR1A (human) (UniProt P36894)
BMPR1B (human) = BMPR1B (human) (UniProt O00238)
BMPR2 (human) = BMPR2 (human) (UniProt Q13873)
BRSK1 (human) = BRSK1 (human) (UniProt Q8TDC3)
BRSK2 (human) = BRSK2 (human) (UniProt Q8IWQ3)
CAMK1D (human) = CAMK1D (human) (UniProt Q8IU85)
CDK14 (human) = CDK14 (human) (UniProt O94921)
CDK15 (human) = CDK15 (human) (UniProt Q96Q40)
CDK5 (human) = CDK5 (human) (UniProt Q00535)
CDK7 (human) = CDK7 (human) (UniProt P50613)
DCLK1 (human) = DCLK1 (human) (UniProt O15075)
FGFR2 (human) = FGFR2 (human) (UniProt P21802)
FGFR2 (human), sequence (P21802 whole entry, looked up): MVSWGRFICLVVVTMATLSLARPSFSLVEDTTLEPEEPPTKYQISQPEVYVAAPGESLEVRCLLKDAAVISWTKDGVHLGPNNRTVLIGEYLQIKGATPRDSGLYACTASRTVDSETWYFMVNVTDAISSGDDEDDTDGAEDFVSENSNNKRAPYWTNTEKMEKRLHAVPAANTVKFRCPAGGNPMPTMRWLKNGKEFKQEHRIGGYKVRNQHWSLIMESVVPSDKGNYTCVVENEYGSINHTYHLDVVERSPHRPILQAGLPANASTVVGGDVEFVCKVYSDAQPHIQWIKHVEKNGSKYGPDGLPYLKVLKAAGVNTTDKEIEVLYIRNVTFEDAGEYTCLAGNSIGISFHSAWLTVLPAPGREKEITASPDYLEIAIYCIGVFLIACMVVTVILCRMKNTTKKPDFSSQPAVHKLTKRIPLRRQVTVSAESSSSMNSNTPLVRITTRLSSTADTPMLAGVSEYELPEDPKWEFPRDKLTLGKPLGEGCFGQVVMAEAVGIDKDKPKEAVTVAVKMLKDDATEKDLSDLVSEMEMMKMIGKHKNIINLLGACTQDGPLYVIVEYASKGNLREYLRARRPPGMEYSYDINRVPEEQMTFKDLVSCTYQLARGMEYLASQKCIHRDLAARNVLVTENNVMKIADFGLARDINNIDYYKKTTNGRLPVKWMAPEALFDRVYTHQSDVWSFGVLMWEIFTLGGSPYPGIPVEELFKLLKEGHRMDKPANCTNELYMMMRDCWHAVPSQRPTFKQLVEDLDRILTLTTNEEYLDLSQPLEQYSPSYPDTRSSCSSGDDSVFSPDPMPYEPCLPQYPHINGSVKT

FLT3 (human) = FLT3 (human) (UniProt P36888)
[1] = tested on: FLT3 (human), P36888 [ITD]
GSK3B (human) = GSK3B (human) (UniProt P49841)
IKBKE (human) = IKBKE (human) (UniProt Q14164)
[2] = molecular target: JAK1 JH1 catalytic (human) (UniProt P23458)
LATS1 (human) = LATS1 (human) (UniProt O95835)
LIMK1 (human) = LIMK1 (human) (UniProt P53667)
LYN (human) = LYN (human) (UniProt P07948)
LYN (human), sequence (P07948 whole entry, looked up): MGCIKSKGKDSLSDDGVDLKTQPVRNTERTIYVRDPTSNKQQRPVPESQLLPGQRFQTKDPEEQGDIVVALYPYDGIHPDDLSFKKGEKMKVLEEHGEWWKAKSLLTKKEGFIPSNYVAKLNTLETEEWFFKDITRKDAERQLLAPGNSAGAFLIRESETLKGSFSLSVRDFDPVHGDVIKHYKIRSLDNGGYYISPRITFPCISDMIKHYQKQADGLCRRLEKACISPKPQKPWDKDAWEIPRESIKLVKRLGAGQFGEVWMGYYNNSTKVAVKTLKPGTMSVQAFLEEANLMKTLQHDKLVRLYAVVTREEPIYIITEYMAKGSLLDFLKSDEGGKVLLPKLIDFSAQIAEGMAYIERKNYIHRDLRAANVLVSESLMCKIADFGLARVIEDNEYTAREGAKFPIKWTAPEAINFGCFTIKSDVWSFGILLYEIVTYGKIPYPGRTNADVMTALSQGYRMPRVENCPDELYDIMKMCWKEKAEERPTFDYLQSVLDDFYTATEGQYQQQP

MAP3K7 (human) = MAP3K7 (human) (UniProt O43318)
MAP3K9 (human) = MAP3K9 (human) (UniProt P80192)
MAP4K1 (human) = MAP4K1 (human) (UniProt Q92918)
MAPK9 (human) = MAPK9 (human) (UniProt P45984)
MAPK9 (human), sequence (P45984 whole entry, looked up): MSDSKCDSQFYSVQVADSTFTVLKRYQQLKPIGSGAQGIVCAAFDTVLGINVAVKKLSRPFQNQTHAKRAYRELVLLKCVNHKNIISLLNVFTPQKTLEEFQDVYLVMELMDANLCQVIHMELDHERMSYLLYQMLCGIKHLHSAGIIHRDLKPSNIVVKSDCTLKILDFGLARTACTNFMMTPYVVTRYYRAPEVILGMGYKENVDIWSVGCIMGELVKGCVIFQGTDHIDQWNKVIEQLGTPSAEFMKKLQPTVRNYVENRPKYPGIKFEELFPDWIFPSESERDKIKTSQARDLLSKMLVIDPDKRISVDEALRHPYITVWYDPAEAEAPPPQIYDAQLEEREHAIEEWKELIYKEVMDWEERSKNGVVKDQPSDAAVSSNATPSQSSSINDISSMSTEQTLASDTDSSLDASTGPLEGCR

MARK3 (human) = MARK3 (human) (UniProt P27448)
MARK3 (human), sequence (P27448 whole entry, looked up): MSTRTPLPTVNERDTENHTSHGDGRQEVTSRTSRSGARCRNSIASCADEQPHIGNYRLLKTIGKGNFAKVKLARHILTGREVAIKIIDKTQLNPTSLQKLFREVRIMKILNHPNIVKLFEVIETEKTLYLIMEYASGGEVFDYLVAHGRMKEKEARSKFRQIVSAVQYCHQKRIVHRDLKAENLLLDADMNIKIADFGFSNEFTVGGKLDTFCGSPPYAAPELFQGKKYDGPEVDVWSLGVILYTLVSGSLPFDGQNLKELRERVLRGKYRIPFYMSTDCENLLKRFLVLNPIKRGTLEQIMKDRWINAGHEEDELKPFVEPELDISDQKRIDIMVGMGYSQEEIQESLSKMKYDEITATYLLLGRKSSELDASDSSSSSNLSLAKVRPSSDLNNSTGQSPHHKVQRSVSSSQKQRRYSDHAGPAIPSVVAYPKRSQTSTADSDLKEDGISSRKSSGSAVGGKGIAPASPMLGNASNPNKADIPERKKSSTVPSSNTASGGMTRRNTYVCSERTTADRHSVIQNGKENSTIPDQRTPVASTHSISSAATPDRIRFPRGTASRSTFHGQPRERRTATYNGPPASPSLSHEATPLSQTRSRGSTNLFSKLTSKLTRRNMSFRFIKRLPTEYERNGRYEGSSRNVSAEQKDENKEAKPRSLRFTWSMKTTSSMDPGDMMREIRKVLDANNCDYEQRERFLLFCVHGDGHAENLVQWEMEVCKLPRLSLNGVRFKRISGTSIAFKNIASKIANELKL

NEK2 (human) = NEK2 (human) (UniProt P51955)
NTRK3 (human) = NTRK3 (human) (UniProt Q16288)
PIK3CB (human) = PIK3CB (human) (UniProt P42338)
PIK3CB (human), sequence (P42338 whole entry, looked up): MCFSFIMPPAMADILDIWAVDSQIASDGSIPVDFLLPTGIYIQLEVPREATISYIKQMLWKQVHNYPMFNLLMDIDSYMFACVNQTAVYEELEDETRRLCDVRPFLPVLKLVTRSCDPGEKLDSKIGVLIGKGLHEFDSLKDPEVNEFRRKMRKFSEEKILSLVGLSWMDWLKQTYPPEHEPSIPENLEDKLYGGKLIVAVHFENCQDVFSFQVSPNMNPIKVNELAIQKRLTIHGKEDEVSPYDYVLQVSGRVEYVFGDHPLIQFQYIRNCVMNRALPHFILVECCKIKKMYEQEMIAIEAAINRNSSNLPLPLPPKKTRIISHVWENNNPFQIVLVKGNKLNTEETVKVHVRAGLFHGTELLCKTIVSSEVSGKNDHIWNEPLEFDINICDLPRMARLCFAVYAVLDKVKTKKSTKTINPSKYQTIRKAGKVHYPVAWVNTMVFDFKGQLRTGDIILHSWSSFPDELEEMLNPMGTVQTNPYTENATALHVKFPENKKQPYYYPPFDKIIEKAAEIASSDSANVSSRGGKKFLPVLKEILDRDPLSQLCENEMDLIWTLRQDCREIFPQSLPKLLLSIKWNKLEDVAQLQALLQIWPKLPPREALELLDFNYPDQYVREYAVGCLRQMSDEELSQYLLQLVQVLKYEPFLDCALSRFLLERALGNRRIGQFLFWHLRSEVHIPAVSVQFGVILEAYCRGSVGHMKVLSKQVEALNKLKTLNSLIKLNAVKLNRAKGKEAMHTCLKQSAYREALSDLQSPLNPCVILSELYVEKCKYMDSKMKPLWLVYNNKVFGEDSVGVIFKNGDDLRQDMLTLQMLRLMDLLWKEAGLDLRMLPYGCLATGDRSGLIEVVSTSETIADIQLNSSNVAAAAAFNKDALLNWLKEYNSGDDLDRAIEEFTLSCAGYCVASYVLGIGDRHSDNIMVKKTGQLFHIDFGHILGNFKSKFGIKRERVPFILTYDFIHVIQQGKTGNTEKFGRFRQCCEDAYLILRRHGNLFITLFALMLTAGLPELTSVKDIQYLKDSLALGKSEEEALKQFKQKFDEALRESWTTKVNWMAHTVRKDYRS

PLK1 (human) = PLK1 (human) (UniProt P53350)
PRKD3 (human) = PRKD3 (human) (UniProt O94806)
RPS6KA3 KD1 (human) = RPS6KA3 KD1 (human) (UniProt P51812)
RPS6KA5 KD1 (human) = RPS6KA5 KD1 (human) (UniProt O75582)
STK11 (human) = STK11 (human) (UniProt Q15831)
STK11 (human), sequence (Q15831 whole entry, looked up): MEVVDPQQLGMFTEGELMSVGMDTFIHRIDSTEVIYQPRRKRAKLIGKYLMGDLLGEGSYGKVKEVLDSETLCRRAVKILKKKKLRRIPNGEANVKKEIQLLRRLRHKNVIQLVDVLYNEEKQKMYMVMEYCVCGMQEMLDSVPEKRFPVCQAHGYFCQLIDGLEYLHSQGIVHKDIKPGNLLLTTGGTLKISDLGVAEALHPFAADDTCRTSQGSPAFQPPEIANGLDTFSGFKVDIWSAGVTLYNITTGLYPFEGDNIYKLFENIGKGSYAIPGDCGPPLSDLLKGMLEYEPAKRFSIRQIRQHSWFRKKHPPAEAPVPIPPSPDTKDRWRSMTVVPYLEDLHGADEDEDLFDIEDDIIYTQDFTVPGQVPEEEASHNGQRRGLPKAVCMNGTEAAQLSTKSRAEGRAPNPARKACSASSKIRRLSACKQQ

STK16 (human) = STK16 (human) (UniProt O75716)
STK4 (human) = STK4 (human) (UniProt Q13043)
TSSK1B (human) = TSSK1B (human) (UniProt Q9BXA7)
TSSK1B (human), sequence (Q9BXA7 whole entry, looked up): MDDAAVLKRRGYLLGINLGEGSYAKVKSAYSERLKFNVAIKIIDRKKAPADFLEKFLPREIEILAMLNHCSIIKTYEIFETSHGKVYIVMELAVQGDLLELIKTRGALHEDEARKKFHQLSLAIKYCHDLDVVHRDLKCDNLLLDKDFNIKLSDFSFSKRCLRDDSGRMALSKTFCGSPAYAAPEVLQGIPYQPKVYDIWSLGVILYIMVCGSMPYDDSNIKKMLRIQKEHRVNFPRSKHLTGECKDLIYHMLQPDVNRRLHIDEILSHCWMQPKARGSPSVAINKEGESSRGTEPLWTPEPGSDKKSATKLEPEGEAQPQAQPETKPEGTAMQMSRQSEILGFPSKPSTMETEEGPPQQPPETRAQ

[3] = molecular target: TYK2 JH2 pseudokinase (human) (UniProt P29597)
BLK (human) = BLK (human) (UniProt P51451)
CDK9 (human) = CDK9 (human) (UniProt P50750)
CDK9 (human), sequence (P50750 whole entry, looked up): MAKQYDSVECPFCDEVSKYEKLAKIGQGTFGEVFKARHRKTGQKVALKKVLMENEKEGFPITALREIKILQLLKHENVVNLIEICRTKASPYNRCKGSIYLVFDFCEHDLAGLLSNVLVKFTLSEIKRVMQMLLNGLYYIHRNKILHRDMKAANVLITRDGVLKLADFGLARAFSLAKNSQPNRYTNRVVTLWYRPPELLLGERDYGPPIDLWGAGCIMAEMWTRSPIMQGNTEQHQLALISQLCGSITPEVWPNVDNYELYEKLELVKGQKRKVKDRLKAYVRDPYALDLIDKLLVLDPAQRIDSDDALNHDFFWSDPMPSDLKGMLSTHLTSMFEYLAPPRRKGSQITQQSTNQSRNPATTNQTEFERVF

YES1 (human) = YES1 (human) (UniProt P07947)

Compound	kinase still bound, per cent of control (BMPR1A (human))	kinase still bound, per cent of control (BMPR1B (human))	kinase still bound, per cent of control (BMPR2 (human))	kinase still bound, per cent of control (BRSK1 (human))	kinase still bound, per cent of control (BRSK2 (human))	kinase still bound, per cent of control (CDK14 (human))	kinase still bound, per cent of control (CDK15 (human))	kinase still bound, per cent of control (CDK5 (human))	kinase still bound, per cent of control (CDK7 (human))	kinase still bound, per cent of control (DCLK1 (human))	kinase still bound, per cent of control (FGFR2 (human))	kinase still bound, per cent of control (FLT3 (human))	kinase still bound, per cent of control [1]	kinase still bound, per cent of control (GSK3B (human))	kinase still bound, per cent of control (IKBKE (human))	kinase still bound, per cent of control [2]	kinase still bound, per cent of control (LATS1 (human))	kinase still bound, per cent of control (LIMK1 (human))	kinase still bound, per cent of control (LYN (human))	kinase still bound, per cent of control (MAP3K7 (human))	further results
COc1cc(N2CCN(C)CC2)ccc1Nc1nc(N)c(C(=O)c2c(Cl)cccc2Cl)s1	100%	90%	82%	91%	87%	91%	26%	88%	2.8%	3%	91%	96%	87%	100%	87%	100%	100%	74%	100%	78%	kinase still bound, per cent of control (CAMK1D (human)): 24%; kinase still bound, per cent of control (MAP3K9 (human)): 100%; kinase still bound, per cent of control (MAP4K1 (human)): 90%; kinase still bound, per cent of control (MAPK9 (human)): 100%; kinase still bound, per cent of control (MARK3 (human)): 100%; kinase still bound, per cent of control (NEK2 (human)): 100%; kinase still bound, per cent of control (NTRK3 (human)): 100%; kinase still bound, per cent of control (PIK3CB (human)): 100%; kinase still bound, per cent of control (PLK1 (human)): 72%; kinase still bound, per cent of control (PRKD3 (human)): 70%; kinase still bound, per cent of control (RPS6KA3 KD1 (human)): 66%; kinase still bound, per cent of control (RPS6KA5 KD1 (human)): 100%; kinase still bound, per cent of control (STK11 (human)): 100%; kinase still bound, per cent of control (STK16 (human)): 90%; kinase still bound, per cent of control (STK4 (human)): 100%; kinase still bound, per cent of control (TSSK1B (human)): 87%; kinase still bound, per cent of control [3]: 60%
C[C@@H](Oc1cc(-n2cnc3ccc(CN4CCN(C)CC4)cc32)sc1C(N)=O)c1ccccc1C(F)(F)F	28%	100%	97%	42%	52%	94%	67%	100%	33%	40%	75%	11%	31%	100%	58%	100%	100%	100%	99%	48%	kinase still bound, per cent of control (BLK (human)): 100%; kinase still bound, per cent of control (CAMK1D (human)): 82%; kinase still bound, per cent of control (CDK9 (human)): 93%; kinase still bound, per cent of control (MAP3K9 (human)): 17%; kinase still bound, per cent of control (MAP4K1 (human)): 83%; kinase still bound, per cent of control (MAPK9 (human)): 100%; kinase still bound, per cent of control (MARK3 (human)): 63%; kinase still bound, per cent of control (NEK2 (human)): 2.4%; kinase still bound, per cent of control (NTRK3 (human)): 100%; kinase still bound, per cent of control (PIK3CB (human)): 0.8%; kinase still bound, per cent of control (PLK1 (human)): 0.1%; kinase still bound, per cent of control (PRKD3 (human)): 12%; kinase still bound, per cent of control (RPS6KA3 KD1 (human)): 0.5%; kinase still bound, per cent of control (RPS6KA5 KD1 (human)): 100%; kinase still bound, per cent of control (STK11 (human)): 90%; kinase still bound, per cent of control (STK16 (human)): 65%; kinase still bound, per cent of control (STK4 (human)): 100%; kinase still bound, per cent of control (TSSK1B (human)): 19%; kinase still bound, per cent of control [3]: 100%
Cn1c(=O)n(-c2ccc(C(C)(C)C#N)cc2)c2c3cc(-c4cnc5ccccc5c4)ccc3ncc21	100%	100%	100%	100%	100%	100%	100%	100%	100%	100%	100%	100%	100%	100%	100%	16%	100%	100%	100%	100%	kinase still bound, per cent of control (BLK (human)): 100%; kinase still bound, per cent of control (CAMK1D (human)): 100%; kinase still bound, per cent of control (CDK9 (human)): 100%; kinase still bound, per cent of control (MAP3K9 (human)): 100%; kinase still bound, per cent of control (MAP4K1 (human)): 100%; kinase still bound, per cent of control (MAPK9 (human)): 100%; kinase still bound, per cent of control (MARK3 (human)): 100%; kinase still bound, per cent of control (NEK2 (human)): 100%; kinase still bound, per cent of control (NTRK3 (human)): 100%; kinase still bound, per cent of control (PIK3CB (human)): 22%; kinase still bound, per cent of control (PLK1 (human)): 100%; kinase still bound, per cent of control (PRKD3 (human)): 100%; kinase still bound, per cent of control (RPS6KA5 KD1 (human)): 100%; kinase still bound, per cent of control (STK11 (human)): 100%; kinase still bound, per cent of control (STK16 (human)): 100%; kinase still bound, per cent of control (STK4 (human)): 100%; kinase still bound, per cent of control (TSSK1B (human)): 100%; kinase still bound, per cent of control [3]: 100%; kinase still bound, per cent of control (YES1 (human)): 100%
CC[C@@H]1C(=O)N(C)c2cnc(Nc3ccc(C(=O)NC4CCN(C)CC4)cc3OC)nc2N1C1CCCC1	100%	100%	100%	100%	100%	100%	100%	100%	100%	5.4%	100%	100%	100%	100%	100%	100%	100%	100%	100%	100%	kinase still bound, per cent of control (CDK9 (human)): 100%; kinase still bound, per cent of control (MAP3K9 (human)): 100%; kinase still bound, per cent of control (MAP4K1 (human)): 100%; kinase still bound, per cent of control (MAPK9 (human)): 100%; kinase still bound, per cent of control (MARK3 (human)): 100%; kinase still bound, per cent of control (NEK2 (human)): 17%; kinase still bound, per cent of control (NTRK3 (human)): 100%; kinase still bound, per cent of control (PIK3CB (human)): 100%; kinase still bound, per cent of control (PRKD3 (human)): 10%; kinase still bound, per cent of control (RPS6KA5 KD1 (human)): 100%; kinase still bound, per cent of control (STK11 (human)): 100%; kinase still bound, per cent of control (STK16 (human)): 14%; kinase still bound, per cent of control (STK4 (human)): 100%; kinase still bound, per cent of control (TSSK1B (human)): 100%; kinase still bound, per cent of control [3]: 100%; kinase still bound, per cent of control (YES1 (human)): 100%
